Reference: patent US9693996B1, “Chlorophyll c containing degranulation suppressor” (MARUHA NICHIRO CORPORATION, priority 2011, dated 2017)

What was measured:
[1] = system: rat basophile derived cell line RBL-2H3; test: Test for evaluating degranulation suppressing activity (β-hexosaminidase release); assay type: cell-based; conditions: for degranulation suppressing activity (percent degranulation): RBL-2H3 sensitized with anti DNP-IgE, stimulated with DNP-albumin, control group taken as 100%
Method: First, the rat basophile derived cell line RBL-2H3 was diluted with a DMEM medium (product of SIGMA) containing 10% fetal bovine serum (hereinafter referred to as FBS) to give a density of 2.5×10^5 cells/ml, dispensed on a 24-well culture plate in a volume of 1 ml/well, and cultured overnight at 37° C. under conditions of 5% CO2 and 100% humidity. After removing the culture supernatant, the cell surfaces were washed with 1 ml/well of a phosphate buffer solution (hereinafter referred to as PBS) and an anti DNP-IgE solution prepared by diluting mouse monoclonal anti-dinitrophenol (product of SIGMA) with a DMEM medium to give a concentration of 50 ng/ml was added in a volume of 500 μl/well, followed by incubation for 2 hours at 37° C. under conditions of 5% CO2 and 100% humidity. After the end of incubation, the anti DNP-IgE solution was removed and washing was done using 1.5 ml/well of a buffer solution containing 137 mM NaCl (product of nacalai tesque), 2.7 mM KCl (JUNSEI CHEMICAL), 1.8 Mm CaCl2.2H2O (JUNSEI CHEMICAL), 1 mM MgCl2. 6H2O (JUNSEI CHEMICAL), 5.6 mM glucose (Wako Pure Chemical Industries), 20 mM HEPES (Wako Pure Chemical Industries) and 0.1% BSA (the buffer solution being a modified Tyrode buffer which is hereinafter referred to as “MT buffer”); this procedure was repeated twice. Next, an MT buffer containing 0.5% of a chlorophyll, i.e., an authentic sample of chlorophyll a (product of DHI), an authentic sample of chlorophyll b (product of DHI), an authentic sample of chlorophyll c2 (product of DHI), or an authentic sample of chlorophyll d (purified from cyanobacteria adhering to surfaces of red algae, by referring to Non-Patent Documents 10 and 11, for example) was added in a volume of 490 μl/well and incubation was conducted for 10 minutes at 37° C. under conditions of 5% CO2 and 100% humidity. To a control group that would not undergo suppression of the degranulation reaction, an MT buffer containing 0.5% ethanol was added. After 10-min incubation, Albumin, dinitrophenyl (product of SIGMA) was added to give a concentration of 200 ng/ml and the mixture was stirred to homogeneity, followed by 30-min incubation at 37° C. under conditions of 5% CO2 and 100% humidity. After the end of incubation, the mixture was ice-cooled for 10 minutes to quench the reaction and 500 μl of the supernatant was recovered. To the cells from which the culture supernatant was recovered, Cell Lysate buffer (product of SIGMA) was added in a volume of 500 μl/well and thereafter an ultrasonic cell disrupter was used to form a homogeneous cell lysate which was recovered in a volume of 500 μl. The culture supernatant and the cell lysate were dispensed on a 96-well plate, each in a volume of 50 μl/well, and incubated at 37° C. for 5 minutes. After the end of incubation, an aqueous solution containing 100 mM citric acid and 3.3 mM p-nitrophenyl-2-acetoamido-2-deoxy-β-D-glucopyranoside (product of Wako Pure Chemical Industries) (the aqueous solution is hereinafter referred to as a “substrate solution”) was added in a volume of 100 μl/well and after thorough mixing, incubation was conducted at 37° C. for 25 minutes. After the end of incubation, an aqueous solution containing 2 M glycine (the aqueous solution is hereinafter referred to as a “reaction quencher”) was added in a volume of 100 μl/well and thorough mixing was conducted to quench the reaction; thereafter, a plate reader was used to measure the absorbance at 405 nm. Through this sequence of reactions, degranulation occurred and the activity of β-hexosaminidase contained in the granules was measured to calculate the proportion of granules released from the cells to the culture supernatant. […]

[2] = system: rat basophile derived cell line RBL-2H3; test: Test for evaluating percent cell survival (WST-1); assay type: cell-based; conditions: RBL-2H3, 40 min incubation
Method: The rat basophile derived cell line RBL-2H3 diluted to the same concentration as in Example 1 was dispensed on a 96-well culture plate in a volume of 0.1 ml/well and cultured overnight at 37° C. under conditions of 5% CO2 and 100% humidity. After removing the culture supernatant, the cell surfaces were washed with 1 ml/well of PBS and then an MT buffer containing an authentic sample of chlorophyll c2 at the same concentrations by dry weight as in Example 1 was added in a volume of 100 μl/well and incubation was conducted for 40 minutes at 37° C. under conditions of 5% CO2 and 100% humidity. To a control group that would not undergo suppression of the degranulation reaction, an MT buffer containing 0.5% ethanol was added. After 40-min incubation, WST-1 reagent (product of DOJINDO) was added in a volume of […] and the mixture was incubated for 30 minutes at 37° C. under conditions of 5% CO2 and 100% humidity. After the end of incubation, the mixture was left to stand at room temperature for 10 minutes and then the absorbance at 450 nm was measured to evaluate the percent cell survival.

Compound	degranulation suppressing activity (percent degranulation) [1]	percent cell survival (cytotoxicity) [2]	degranulation suppressing activity (percent degranulation) ([1]; listed as Fr. J)	concentration at which degranulation suppressing activity was already apparent ([1]; by dry weight, RBL-2H3, FIG. 1)
C=Cc1c(C)c2[nH]c1=CC1=NC(=CC3=C(C)C4=C([O-])[C@H](C(=O)OC)C(=C5N=C(C=2)C(C)=C5/C=C/C(=O)[O-])C4=N3)C(CC)=C1C.[Mg+2] [chlorophyll c1]	found to exhibit the degranulation suppressing activity	neither the cell group treated with the authentic sample of chlorophyll c1 nor the cell group treated with the authentic sample of chlorophyll c3 was recognized to experience a drop in the percent cell survival		
C=Cc1c(C)c2cc3nc(c4c5[n-]c(cc6nc(cc1[n-]2)C(C=O)=C6CC)c(C)c5C(=O)[C@@H]4C(=O)OC)[C@@H](CCC(=O)OC/C=C(\C)CCC[C@H](C)CCC[C@H](C)CCCC(C)C)[C@@H]3C.[Mg+2] [chlorophyll b, reference compound]	no degranulation suppressing activity at all			
C=CC1=C(C)C2=CC3=NC(=C4C5=NC(=C(C)C5=C([O-])[C@@H]4C(=O)OC)C=c4[nH]c(c(C(=O)OC)c4C=C)=CC1=N2)C(/C=C/C(=O)[O-])=C3C.[Mg+2] [chlorophyll c3]	found to exhibit the degranulation suppressing activity	neither the cell group treated with the authentic sample of chlorophyll c1 nor the cell group treated with the authentic sample of chlorophyll c3 was recognized to experience a drop in the percent cell survival		
C=Cc1c(C)c2cc3nc(c4c5[n-]c(cc6nc(cc1[n-]2)C(C)=C6CC)c(C)c5C(=O)[C@@H]4C(=O)OC)[C@@H](CCC(=O)OC/C=C(\C)CCC[C@H](C)CCC[C@H](C)CCCC(C)C)[C@@H]3C.[Mg+2] [chlorophyll a, reference compound]	no degranulation suppressing activity at all			
C=CC1=C(C)C2=NC1=CC1=C(C)C3=C([O-])[C@H](C(=O)OC)C(=C4N=C(C=c5[nH]c(c(C=C)c5C)=C2)C(C)=C4/C=C/C(=O)[O-])C3=N1.[Mg+2] [chlorophyll c2]	exhibit the degranulation suppressing activity in a dose-dependent manner	none of the cell groups treated with the authentic sample of chlorophyll c2 experienced a drop in percent cell survival	found to have the evaluating degranulation suppressing activity	about 0.05 μg/ml
CCC1=C(C)c2cc3[n-]c(cc4nc(c5c6[n-]c(cc1n2)c(C)c6C(=O)[C@@H]5C(=O)OC)[C@@H](CCC(=O)OC/C=C(\C)CCC[C@H](C)CCC[C@H](C)CCCC(C)C)[C@@H]4C)c(C)c3C=O.[Mg+2] [chlorophyll d, reference compound]	no degranulation suppressing activity at all			
